Entries after “also recorded” stand apart in the source; their conditions may differ.
How the values were obtained:
MCF7 = assay: NCI-60 antiproliferative screening, MCF7; format: cell-based; settings: Homo sapiens, MCF7 (Breast Cancer), read-out: Inhibition% values at 10 μM concentration
Description: (§1) Then, 8f was submitted to NCI for antiproliferative evaluation against 59 different tumor cell lines. The cancer types of the NCI-60 program include leukemia, non-small cell lung cancer (NSCLC), colon cancer, CNS cancer, melanoma, ovary cancer, renal cancer, prostate cancer, and breast cancer.

MDA-MB-231/ATCC = assay: NCI-60 antiproliferative screening, MDA-MB-231/ATCC; format: cell-based; settings: Homo sapiens, MDA-MB-231/ATCC (Breast Cancer), read-out: Inhibition% values at 10 μM concentration
Description: as §1

HCT116 = assay: Antiproliferative assay (Alamar blue, 72 h), HCT116; format: cell-based; settings: Homo sapiens, HCT-116, HCT116 cells, three independent experiments, SD < 10%, read-out: Antiproliferative effect IC50, HCT116
SK-MEL-28 = assay: NCI-60 antiproliferative screening, SK-MEL-28; format: cell-based; settings: Homo sapiens, SK-MEL-28 (Melanoma), read-out: Inhibition% values at 10 μM concentration
Description: as §1

CCRF-CEM = assay: NCI-60 antiproliferative screening, CCRF-CEM; format: cell-based; settings: Homo sapiens, CCRF-CEM (Leukemia), read-out: Inhibition% values at 10 μM concentration
Description: as §1

PC-3 = assay: NCI-60 antiproliferative screening, PC-3; format: cell-based; settings: Homo sapiens, PC-3 (Prostate Cancer), read-out: Inhibition% values at 10 μM concentration
Description: as §1

BT-549 = assay: NCI-60 antiproliferative screening, BT-549; format: cell-based; settings: Homo sapiens, BT-549 (Breast Cancer), read-out: Inhibition% values at 10 μM concentration
Description: as §1

acetylated α-tubulin = assay: Western blot, acetylated α-tubulin in RPMI-8226 cells; format: cell-based, human; settings: 24 h, 1, 5, and 10 μM
Method: RPMI-8226 cells (1 × 10^6) were seeded overnight and incubated with compound 8f for 24 h on indicated concentrations. Cell extract was prepared by lysing cultured cells with a mammalian protein extraction reagent supplemented with EDTA-free protease inhibitor for 15 min. SDS-PAGE and immunoblot analysis were conducted as described. Antibodies for Ac-H3 (abcom, AB32129) and Ac-ɑ-tubulin (Cell Signaling, 2144) were used.

RPMI-8226 = assay: NCI-60 antiproliferative screening, RPMI-8226; format: cell-based; settings: Homo sapiens, RPMI-8226 (Leukemia), read-out: Inhibition% values at 10 μM concentration
Description: as §1

LOX IMVI = assay: NCI-60 antiproliferative screening, LOX IMVI; format: cell-based; settings: Homo sapiens, LOX IMVI (Melanoma), read-out: Inhibition% values at 10 μM concentration
Description: as §1

HL60 [1] = assay: Antiproliferative assay (Alamar blue, 72 h), HL60; format: cell-based; settings: Homo sapiens, HL-60, HL60 cells, three independent experiments, SD < 10%, read-out: Antiproliferative effect IC50, HL60
K-562 = assay: NCI-60 antiproliferative screening, K-562; format: cell-based; settings: Homo sapiens, K562, K-562 (Leukemia), read-out: Inhibition% values at 10 μM concentration
Description: as §1

T-47D = assay: NCI-60 antiproliferative screening, T-47D; format: cell-based; settings: Homo sapiens, T47D, T-47D (Breast Cancer), read-out: Inhibition% values at 10 μM concentration
Description: as §1

SN12C = assay: NCI-60 antiproliferative screening, SN12C; format: cell-based; settings: Homo sapiens, SN12C (Renal Cancer), read-out: Inhibition% values at 10 μM concentration
Description: as §1

HL60 [2] = assay: NCI-60 antiproliferative screening, HL60; format: cell-based; settings: Homo sapiens, HL-60, HL60 (Leukemia), read-out: Inhibition% values at 10 μM concentration
Description: as §1

SNB-75 = assay: NCI-60 antiproliferative screening, SNB-75; format: cell-based; settings: Homo sapiens, SNB-75 (CNS Cancer), read-out: Inhibition% values at 10 μM concentration
Description: as §1

NCI-H23 = assay: NCI-60 antiproliferative screening, NCI-H23; format: cell-based; settings: Homo sapiens, NCI-H23 (Non-Small Cell Lung Cancer), read-out: Inhibition% values at 10 μM concentration
Description: as §1

TK-10 = assay: NCI-60 antiproliferative screening, TK-10; format: cell-based; settings: Homo sapiens, TK-10 (Renal Cancer), read-out: Inhibition% values at 10 μM concentration
Description: as §1

HCT-15 = assay: NCI-60 antiproliferative screening, HCT-15; format: cell-based; settings: Homo sapiens, HCT-15 (Colon Cancer), read-out: Inhibition% values at 10 μM concentration
Description: as §1

MOLT-4 = assay: NCI-60 antiproliferative screening, MOLT-4; format: cell-based; settings: Homo sapiens, MOLT-4 (Leukemia), read-out: Inhibition% values at 10 μM concentration
Description: as §1

OVCAR-8 = assay: NCI-60 antiproliferative screening, OVCAR-8; format: cell-based; settings: Homo sapiens, OVCAR-8 (Ovarian Cancer), read-out: Inhibition% values at 10 μM concentration
Description: as §1

HDAC2 = molecular target: T1, HDAC2 (Homo sapiens, UniProt Q92769); assay: In vitro HDAC enzyme assay (Reaction Biology Corporation), HDAC2; format: biochemical; settings: Table 2 isozyme screen; duplicate, SD < 15%
T1 construct: purchased Reaction Biology Corporation

NCI-H322M = assay: NCI-60 antiproliferative screening, NCI-H322M; format: cell-based; settings: Homo sapiens, NCI-H322M (Non-Small Cell Lung Cancer), read-out: Inhibition% values at 10 μM concentration
Description: as §1

HDAC5 = molecular target: T2, HDAC5 (Homo sapiens, UniProt Q9UQL6); assay: In vitro HDAC enzyme assay (Reaction Biology Corporation), HDAC5; format: biochemical; settings: Table 2 isozyme screen; duplicate, SD < 15%
T2 construct: purchased Reaction Biology Corporation

KM12 = assay: NCI-60 antiproliferative screening, KM12; format: cell-based; settings: Homo sapiens, KM12 (Colon Cancer), read-out: Inhibition% values at 10 μM concentration
Description: as §1

DU-145 = assay: NCI-60 antiproliferative screening, DU-145; format: cell-based; settings: Homo sapiens, DU-145 (Prostate Cancer), read-out: Inhibition% values at 10 μM concentration
Description: as §1

IGROV1 = assay: NCI-60 antiproliferative screening, IGROV1; format: cell-based; settings: Homo sapiens, IGROV-1, IGROV1 (Ovarian Cancer), read-out: Inhibition% values at 10 μM concentration
Description: as §1

OVCAR-4 = assay: NCI-60 antiproliferative screening, OVCAR-4; format: cell-based; settings: Homo sapiens, OVCAR-4 (Ovarian Cancer), read-out: Inhibition% values at 10 μM concentration
Description: as §1

OVCAR-3 = assay: NCI-60 antiproliferative screening, OVCAR-3; format: cell-based; settings: Homo sapiens, OVCAR-3 (Ovarian Cancer), read-out: Inhibition% values at 10 μM concentration
Description: as §1

T2 sequence (Q9UQL6 whole entry): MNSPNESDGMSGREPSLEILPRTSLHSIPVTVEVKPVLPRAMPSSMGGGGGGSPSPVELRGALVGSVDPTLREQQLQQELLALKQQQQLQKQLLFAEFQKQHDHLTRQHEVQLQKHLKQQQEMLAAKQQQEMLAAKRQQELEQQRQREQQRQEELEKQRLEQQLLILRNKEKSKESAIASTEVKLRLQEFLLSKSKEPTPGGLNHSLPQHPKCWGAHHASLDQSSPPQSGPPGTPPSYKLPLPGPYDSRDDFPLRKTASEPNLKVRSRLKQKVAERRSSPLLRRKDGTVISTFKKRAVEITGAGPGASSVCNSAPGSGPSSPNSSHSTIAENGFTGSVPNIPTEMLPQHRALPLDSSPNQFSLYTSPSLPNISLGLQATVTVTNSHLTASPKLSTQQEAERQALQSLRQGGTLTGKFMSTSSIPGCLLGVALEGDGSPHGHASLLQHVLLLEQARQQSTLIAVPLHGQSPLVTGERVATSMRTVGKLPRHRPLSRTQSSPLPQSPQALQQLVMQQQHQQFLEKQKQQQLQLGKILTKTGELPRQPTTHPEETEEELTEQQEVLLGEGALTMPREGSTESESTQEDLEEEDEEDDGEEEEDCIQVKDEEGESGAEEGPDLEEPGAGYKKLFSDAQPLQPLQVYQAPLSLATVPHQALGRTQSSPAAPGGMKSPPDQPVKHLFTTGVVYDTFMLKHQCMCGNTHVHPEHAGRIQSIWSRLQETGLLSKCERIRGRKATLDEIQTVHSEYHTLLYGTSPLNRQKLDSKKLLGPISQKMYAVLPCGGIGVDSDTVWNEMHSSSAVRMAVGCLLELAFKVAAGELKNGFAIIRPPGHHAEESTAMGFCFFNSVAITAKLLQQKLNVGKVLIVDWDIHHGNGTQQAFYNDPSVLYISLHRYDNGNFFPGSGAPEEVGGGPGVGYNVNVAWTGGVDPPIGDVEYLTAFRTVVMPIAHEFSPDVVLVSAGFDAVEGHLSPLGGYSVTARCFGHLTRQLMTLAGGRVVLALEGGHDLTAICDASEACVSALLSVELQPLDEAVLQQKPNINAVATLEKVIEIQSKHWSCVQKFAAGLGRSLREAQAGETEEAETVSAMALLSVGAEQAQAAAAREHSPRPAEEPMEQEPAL
T1 sequence (Q92769 whole entry): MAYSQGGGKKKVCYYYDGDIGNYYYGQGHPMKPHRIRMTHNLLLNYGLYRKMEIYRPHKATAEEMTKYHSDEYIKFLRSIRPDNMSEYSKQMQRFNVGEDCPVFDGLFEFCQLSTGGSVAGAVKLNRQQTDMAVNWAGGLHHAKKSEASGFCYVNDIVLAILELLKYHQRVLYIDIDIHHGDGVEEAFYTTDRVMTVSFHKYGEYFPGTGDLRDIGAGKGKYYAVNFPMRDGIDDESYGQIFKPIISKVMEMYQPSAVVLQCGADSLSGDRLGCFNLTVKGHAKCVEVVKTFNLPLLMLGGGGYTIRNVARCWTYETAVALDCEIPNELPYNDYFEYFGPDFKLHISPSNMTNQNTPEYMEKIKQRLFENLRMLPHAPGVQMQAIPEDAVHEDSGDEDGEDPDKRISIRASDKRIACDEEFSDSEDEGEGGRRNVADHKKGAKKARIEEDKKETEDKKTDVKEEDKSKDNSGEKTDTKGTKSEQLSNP

COc1cccc(-c2nc3c(c(-c4cccc(OC)c4)n2)CCN(C(=O)CCCCCCC(=O)NO)C3)c1 [Compound 8f, 8-(2,4-Bis(3-methoxyphenyl)-5,8-dihydropyrido [3,4-d]pyrimidin-7(6H)-yl)-N-hydroxy-8-oxooctanamide]
inhibition at 10 µM (MCF7): 92.1% | inhibition at 10 µM (MDA-MB-231/ATCC): 100% | IC50 (HCT116): 3.25 µM | inhibition at 10 µM (SK-MEL-28): 100% | inhibition at 10 µM (CCRF-CEM): 85% | inhibition at 10 µM (PC-3): 83.3% | inhibition at 10 µM (BT-549): 81.9% | levels of acetylated α-tubulin (acetylated α-tubulin): increase the levels of acetylated α-tubulin in a dose-dependent manner; also recorded: elevated the levels of acetylated α-tubulin in a dose-dependent manner | inhibition at 10 µM (RPMI-8226): 88.7% | inhibition at 10 µM (LOX IMVI): 100% | IC50 (HL60 [1]): 3.2 µM | inhibition at 10 µM (K-562): 90.2% | inhibition at 10 µM (T-47D): 100% | inhibition at 10 µM (SN12C): 100% | inhibition at 10 µM (HL60 [2]): 100% | inhibition at 10 µM (SNB-75): 71% | inhibition at 10 µM (NCI-H23): 100% | inhibition at 10 µM (TK-10): 100% | inhibition at 10 µM (HCT-15): 100% | inhibition at 10 µM (MOLT-4): 87.7% | inhibition at 10 µM (OVCAR-8): 93.6% | IC50 (HDAC2): 0.39 µM | inhibition at 10 µM (NCI-H322M): 89% | HDAC5 IC50 (HDAC5): poor activity | IC50 (HDAC5): > 10 µM | inhibition at 10 µM (KM12): 88.4% | inhibition at 10 µM (DU-145): 89.8% | inhibition at 10 µM (IGROV1): 100% | inhibition at 10 µM (OVCAR-4): 67.1% | inhibition at 10 µM (OVCAR-3): 100%

Source: paper PMC10648541, “Design, Synthesis, and Antiproliferative Activity of Selective Histone Deacetylases 6 Inhibitors Containing a Tetrahydropyridopyrimidine Scaffold” (Molecules, 2023)
